Reference: the NIST ThermoML archive (doi:10.1021/je0301794)

Legend:
[1] = xn = mol fraction of the nth substance listed; details: 101.3 kPa, Liquid
[2] = excess molar enthalpy (molar enthalpy of mixing); xn = mol fraction of the nth substance listed; details: 318.15 K, 101.3 kPa, Liquid

COC(=O)OC [dimethyl carbonate] + CCCCCCCC
[1]
Details | mass density [kg/m3]
293.15 K, x1 = 0.0513 | 711.1
293.15 K, x1 = 0.0997 | 719.8
293.15 K, x1 = 0.2027 | 740.5
293.15 K, x1 = 0.3063 | 764.5
293.15 K, x1 = 0.3994 | 789.1
293.15 K, x1 = 0.5123 | 823.6
293.15 K, x1 = 0.6078 | 857.4
293.15 K, x1 = 0.7137 | 901.2
293.15 K, x1 = 0.8055 | 945.8
293.15 K, x1 = 0.9061 | 1004
293.15 K, x1 = 0.9516 | 1034.3
293.15 K, x1 = 1 | 1070
298.15 K, x1 = 0.0558 | 707.8
298.15 K, x1 = 0.096 | 715
298.15 K, x1 = 0.1488 | 725.1
298.15 K, x1 = 0.2289 | 741.8
298.15 K, x1 = 0.2947 | 756.9
298.15 K, x1 = 0.4216 | 790.4
298.15 K, x1 = 0.4883 | 810.6
298.15 K, x1 = 0.4968 | 813.3
298.15 K, x1 = 0.5931 | 846.6
298.15 K, x1 = 0.6867 | 884.1
298.15 K, x1 = 0.7879 | 931.6
298.15 K, x1 = 0.8873 | 987.1
298.15 K, x1 = 0.9502 | 1027.7
298.15 K, x1 = 1 | 1063.5
303.15 K, x1 = 0.0519 | 702.9
303.15 K, x1 = 0.0827 | 708.3
303.15 K, x1 = 0.1947 | 729.9
303.15 K, x1 = 0.2829 | 749.4
303.15 K, x1 = 0.3948 | 778.1
303.15 K, x1 = 0.4942 | 807.5
303.15 K, x1 = 0.5964 | 842.4
303.15 K, x1 = 0.6983 | 883.1
303.15 K, x1 = 0.7886 | 925.2
303.15 K, x1 = 0.8946 | 984.3
303.15 K, x1 = 0.9545 | 1023.4
303.15 K, x1 = 1 | 1056.5
313.15 K, x1 = 0.0512 | 694.5
313.15 K, x1 = 0.1005 | 703
313.15 K, x1 = 0.186 | 719.2
313.15 K, x1 = 0.301 | 744.5
313.15 K, x1 = 0.4072 | 771.6
313.15 K, x1 = 0.5002 | 799.1
313.15 K, x1 = 0.6042 | 834.5
313.15 K, x1 = 0.709 | 876.3
313.15 K, x1 = 0.7993 | 918.8
313.15 K, x1 = 0.8465 | 944
313.15 K, x1 = 0.9524 | 1009.1
313.15 K, x1 = 1 | 1043.4
318.15 K, x1 = 0.0823 | 695.4
318.15 K, x1 = 0.1827 | 714.2
318.15 K, x1 = 0.2965 | 738.7
318.15 K, x1 = 0.3626 | 754.9
318.15 K, x1 = 0.436 | 774.6
318.15 K, x1 = 0.5156 | 798.6
318.15 K, x1 = 0.5606 | 813.4
318.15 K, x1 = 0.6305 | 838.7
318.15 K, x1 = 0.6756 | 856.4
318.15 K, x1 = 0.7428 | 885.6
318.15 K, x1 = 0.7845 | 905.6
318.15 K, x1 = 0.8233 | 925.5
318.15 K, x1 = 0.8711 | 951.7
318.15 K, x1 = 0.9071 | 973.5
318.15 K, x1 = 0.964 | 1010.8
318.15 K, x1 = 0.9761 | 1019.5
318.15 K, x1 = 1 | 1036.9

[2]
Details | excess molar enthalpy [kJ/mol]
x1 = 0.0844 | 0.687
x1 = 0.1746 | 1.25
x1 = 0.2622 | 1.69
x1 = 0.3463 | 1.99
x1 = 0.4232 | 2.15
x1 = 0.4922 | 2.21
x1 = 0.5544 | 2.21
x1 = 0.6104 | 2.16
x1 = 0.6455 | 2.11
x1 = 0.683 | 2.04
x1 = 0.7224 | 1.93
x1 = 0.7671 | 1.75
x1 = 0.8115 | 1.54
x1 = 0.8562 | 1.29
x1 = 0.8987 | 0.995
x1 = 0.9358 | 0.697
x1 = 0.9713 | 0.349
x1 = 1 | 0

COC(=O)OC [dimethyl carbonate] + CCCCCC
[1]
Details | mass density [kg/m3]
293.15 K, x1 = 0.0722 | 677.3
293.15 K, x1 = 0.1448 | 696.6
293.15 K, x1 = 0.2286 | 720.8
293.15 K, x1 = 0.3026 | 744
293.15 K, x1 = 0.4102 | 780.8
293.15 K, x1 = 0.5062 | 817
293.15 K, x1 = 0.6026 | 857.1
293.15 K, x1 = 0.7052 | 904
293.15 K, x1 = 0.7974 | 950.5
293.15 K, x1 = 0.901 | 1008.3
293.15 K, x1 = 0.9506 | 1038.5
293.15 K, x1 = 1 | 1070
298.15 K, x1 = 0.082 | 674.9
298.15 K, x1 = 0.1269 | 686.7
298.15 K, x1 = 0.2131 | 710.9
298.15 K, x1 = 0.3197 | 744.1
298.15 K, x1 = 0.3787 | 764
298.15 K, x1 = 0.4712 | 797.6
298.15 K, x1 = 0.5121 | 813.4
298.15 K, x1 = 0.6067 | 852.6
298.15 K, x1 = 0.6987 | 894.5
298.15 K, x1 = 0.842 | 967.9
298.15 K, x1 = 0.9248 | 1015.9
298.15 K, x1 = 0.9615 | 1038.7
298.15 K, x1 = 1 | 1063.5
303.15 K, x1 = 0.0468 | 661.4
303.15 K, x1 = 0.0991 | 674.5
303.15 K, x1 = 0.1951 | 700.4
303.15 K, x1 = 0.295 | 730.4
303.15 K, x1 = 0.3832 | 759.5
303.15 K, x1 = 0.4865 | 797.1
303.15 K, x1 = 0.5899 | 838.7
303.15 K, x1 = 0.696 | 886.3
303.15 K, x1 = 0.7947 | 935.5
303.15 K, x1 = 0.8939 | 990.5
303.15 K, x1 = 0.9436 | 1020.3
303.15 K, x1 = 1 | 1056.5
313.15 K, x1 = 0.0495 | 652.7
313.15 K, x1 = 0.1 | 665.2
313.15 K, x1 = 0.2092 | 694.5
313.15 K, x1 = 0.3093 | 724.6
313.15 K, x1 = 0.4043 | 756.1
313.15 K, x1 = 0.4941 | 788.8
313.15 K, x1 = 0.6052 | 833.6
313.15 K, x1 = 0.7063 | 879.2
313.15 K, x1 = 0.8046 | 928.6
313.15 K, x1 = 0.9014 | 982.5
313.15 K, x1 = 0.9497 | 1011.6
313.15 K, x1 = 1 | 1043.4
318.15 K, x1 = 0.0773 | 654.9
318.15 K, x1 = 0.1163 | 664.6
318.15 K, x1 = 0.1621 | 676.6
318.15 K, x1 = 0.2689 | 706.8
318.15 K, x1 = 0.3288 | 725.3
318.15 K, x1 = 0.4097 | 752.4
318.15 K, x1 = 0.4753 | 776
318.15 K, x1 = 0.5256 | 795.2
318.15 K, x1 = 0.5452 | 803.1
318.15 K, x1 = 0.5879 | 820.6
318.15 K, x1 = 0.6449 | 845.2
318.15 K, x1 = 0.6976 | 869.3
318.15 K, x1 = 0.7615 | 900.4
318.15 K, x1 = 0.8039 | 922.2
318.15 K, x1 = 0.8422 | 942.9
318.15 K, x1 = 0.8808 | 964.3
318.15 K, x1 = 0.9311 | 993.8
318.15 K, x1 = 0.9657 | 1015.1
318.15 K, x1 = 1 | 1036.9

[2]
Details | excess molar enthalpy [kJ/mol]
x1 = 0.088 | 0.716
x1 = 0.1762 | 1.22
x1 = 0.2418 | 1.54
x1 = 0.3259 | 1.81
x1 = 0.4027 | 1.97
x1 = 0.4703 | 2.05
x1 = 0.5162 | 2.07
x1 = 0.5554 | 2.06
x1 = 0.6261 | 1.99
x1 = 0.6776 | 1.9
x1 = 0.7263 | 1.76
x1 = 0.7728 | 1.59
x1 = 0.8189 | 1.35
x1 = 0.866 | 1.1
x1 = 0.9005 | 0.852
x1 = 0.9393 | 0.545
x1 = 0.9822 | 0.197
x1 = 1 | 0
